Key:
Type in all cases: physicochemical
[1] = Vapor pressure measurement (annex A4 to 92/69/ECC, OECD 104, EPA OPPTS 830.7950)
Procedure: (§1) In accordance with DIN 53408, the solution temperatures of N-2-ethylhexylhexahydrophthalimide were measured for PVC. For comparison, the solution temperatures of the known plasticizers di(2-ethylhexyl) phthalate and diisobutyl phthalate were determined. Vapor pressure measurements were carried out in accordance with annex A4 to European Commission specification 92/69/ECC, OECD test specification 104 and, respectively, EPA test specification OPPTS 830.7950. The following table compares the results.

[2] = Solution temperature for PVC in accordance with DIN 53408
Text: A particularly important factor for the use of plasticizers is their gelling performance for PVC. Gelling performance is the capability of a plasticizer to penetrate into the polymeric structure of the PVC and to bring about a plasticizing effect by reducing the level of interaction between the polymer chains. A measure of the gelling performance of a plasticizer is the solution temperature for PVC, determined to DIN 53408. The lower the solution temperature, the better the gelling performance. Better gelling performance or lower solution temperature of the plasticizer means that lower processing temperatures can be selected in the production of flexible PVC. Lower temperatures save energy and time.
as §1

[3] = Boiling point

Row | Compound | Vapor pressure ([1]; 140° C.) | Vapor pressure ([1]; 160° C.) | Vapor pressure ([1]; 180° C.) | Vapor pressure ([1]; 200° C.) | Solution temperature for PVC [2] | Boiling point [3]
1 | CCCCC(CC)COC(=O)c1ccccc1C(=O)OCC(CC)CCCC (stereo not shown) [Di(2-ethylhexyl) phthalate, di(2-ethylhexyl) phthalate] | 0.04 hPa | 0.17 hPa | 0.58 hPa | 1.80 hPa | 124 °C | 384 °C
2 | CC(C)COC(=O)c1ccccc1C(=O)OCC(C)C [Diisobutyl phthalate, diisobutyl phthalate] | 1.50 hPa | 4.20 hPa | 10.70 hPa | 24.40 hPa | 99 °C | 295 °C
3 | N-2-ethylhexylhexahydrophthalimide | – | – | – | – | 99 °C | –

From patent US20090149584A1, “USE OF HEXAHYDROPHTHALIMIDE COMBINATIONS AS SOFTENER” (priority 2006, published 2009)
